Results from publication PMC10418366, “Fighting Celiac Disease: Improvement of pH Stability of Cathepsin L In Vitro by Computational Design” (International Journal of Molecular Sciences, 2023).

Biological target: T1, rTcCathL1 (Tribolium castaneum cathepsin L) (Tribolium castaneum, UniProt D6X519)
T1 construct: gene AUGUSTUS-3.0.2_01950; mature enzyme after autocatalytic processing (pH 4.0, 37 °C) of recombinant proenzyme secreted by Pichia pastoris GS115 (pPICZalphaA); signal peptide and propeptide total 115 residues (stated for the model)
Experiment: active-site titration with irreversible inhibitor
Format: biochemical
Conditions: covalent, 37 °C assay with Glp-Phe-Gln-pNA, 6 mM cysteine, 1 mM EDTA

T1 sequence (D6X519 116-328): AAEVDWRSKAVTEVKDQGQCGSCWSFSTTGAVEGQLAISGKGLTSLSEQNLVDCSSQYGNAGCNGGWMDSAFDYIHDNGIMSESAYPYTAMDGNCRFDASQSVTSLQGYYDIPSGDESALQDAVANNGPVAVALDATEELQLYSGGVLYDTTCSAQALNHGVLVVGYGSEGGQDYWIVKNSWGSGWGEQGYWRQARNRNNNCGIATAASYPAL

CC(C)C[C@H](NC(=O)[C@H]1O[C@@H]1C(=O)O)C(=O)NCCCCN=C(N)N [E-64]
active-site titration with irreversible inhibitor: titration of peptidase active sites with the irreversible inhibitor E-64
